Counter-ions that a name gives are not always drawn.
Assays:
Conditions in all cases: exposure time: 72 h
E13 [1] = patient-derived glioblastoma stem cells of classical subtype; assay: surviving fraction (nuclei count normalised to DMSO); higher = more cells surviving (less toxic)
E21 [2] = patient-derived glioblastoma stem cells of mesenchymal subtype; assay: as above
E28 [3] = patient-derived glioblastoma stem cells of classical subtype; assay: as above
E31 [4] = patient-derived glioblastoma stem cells of proneural subtype; assay: as above
E34 [5] = patient-derived glioblastoma stem cells of proneural subtype; assay: as above
E57 [6] = patient-derived glioblastoma stem cells of mesenchymal subtype; assay: as above
FT3469 [7] = normal neural stem cell line; assay: as above
E13 [8] = assay: phenotypic distance (Euclidean, principal components) from DMSO controls (arbitrary units); higher = stronger morphological change
E21 [9] = assay: as above
E28 [10] = assay: as above
E31 [11] = assay: as above
E34 [12] = assay: as above
E57 [13] = assay: as above
FT3469 [14] = assay: as above
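Throughout, for phenotypic distance (Euclidean, principal components) from DMSO controls: cell Painting imaging in 384-well plates, CellProfiler features reduced to at least 20 principal components, Euclidean distance versus same-plate DMSO vehicle wells (0.1% v/v), median over six images per well.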
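Throughout, for surviving fraction (nuclei count normalised to DMSO): nuclei counted by high-content imaging of Hoechst-stained cells in laminin-coated 384-well plates, relative to 0.1% DMSO vehicle wells, with staurosporine as cell-death control.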

CCCCC(CC)CNC(=N)NC(=N)NCCCCCCNC(=N)NC(=N)NCC(CC)CCCC (stereo not drawn) [Alexidine dihydrochloride]
Conditions | phenotypic distance | surviving fraction
E13 [1], 4.1 nM | – | 0.884
E13 [1], 12.3 nM | – | 0.905
E13 [1], 37 nM | – | 0.978
E13 [1], 111.1 nM | – | 0.877
E13 [1], 333.3 nM | – | 0.607
E13 [1], 1000 nM | – | 0.602
E13 [1], 3000 nM | – | 0.0804
E13 [8], 4.1 nM | 0.582 | –
E13 [8], 12.3 nM | 0.387 | –
E13 [8], 37 nM | 0.788 | –
E13 [8], 111.1 nM | 0.757 | –
E13 [8], 333.3 nM | 1.76 | –
E13 [8], 1000 nM | 1.39 | –
E13 [8], 3000 nM | 10.1 | –
E21 [2], 4.1 nM | – | 0.967
E21 [2], 12.3 nM | – | 0.916
E21 [2], 37 nM | – | 0.945
E21 [2], 111.1 nM | – | 1.02
E21 [2], 333.3 nM | – | 1.07
E21 [2], 1000 nM | – | 0.368
E21 [2], 3000 nM | – | 0.00297
E21 [9], 4.1 nM | 0.597 | –
E21 [9], 12.3 nM | 1.12 | –
E21 [9], 37 nM | 0.958 | –
E21 [9], 111.1 nM | 0.651 | –
E21 [9], 333.3 nM | 0.84 | –
E21 [9], 1000 nM | 4.98 | –
E21 [9], 3000 nM | 19 | –
E28 [3], 4.1 nM | – | 0.911
E28 [3], 12.3 nM | – | 0.933
E28 [3], 37 nM | – | 0.847
E28 [3], 111.1 nM | – | 1.04
E28 [3], 333.3 nM | – | 0.694
E28 [3], 1000 nM | – | 0.233
E28 [3], 3000 nM | – | 0.0064
E28 [10], 4.1 nM | 1.07 | –
E28 [10], 12.3 nM | 0.612 | –
E28 [10], 37 nM | 0.518 | –
E28 [10], 111.1 nM | 0.461 | –
E28 [10], 333.3 nM | 1.31 | –
E28 [10], 1000 nM | 3.13 | –
E28 [10], 3000 nM | 12.9 | –
E31 [4], 4.1 nM | – | 0.955
E31 [4], 12.3 nM | – | 0.825
E31 [4], 37 nM | – | 1.1
E31 [4], 111.1 nM | – | 1.02
E31 [4], 333.3 nM | – | 0.871
E31 [4], 1000 nM | – | 0.125
E31 [4], 3000 nM | – | 0.013
E31 [11], 4.1 nM | 0.786 | –
E31 [11], 12.3 nM | 0.686 | –
E31 [11], 37 nM | 1.01 | –
E31 [11], 111.1 nM | 0.884 | –
E31 [11], 333.3 nM | 0.669 | –
E31 [11], 1000 nM | 5.57 | –
E31 [11], 3000 nM | 11.7 | –
E34 [5], 4.1 nM | – | 0.86
E34 [5], 12.3 nM | – | 1.11
E34 [5], 37 nM | – | 0.972
E34 [5], 111.1 nM | – | 0.991
E34 [5], 333.3 nM | – | 0.939
E34 [5], 1000 nM | – | 0.512
E34 [5], 3000 nM | – | 0.0472
E34 [12], 4.1 nM | 1.35 | –
E34 [12], 12.3 nM | 1.19 | –
E34 [12], 37 nM | 0.769 | –
E34 [12], 111.1 nM | 0.582 | –
E34 [12], 333.3 nM | 0.858 | –
E34 [12], 1000 nM | 4.01 | –
E34 [12], 3000 nM | 14.9 | –
E57 [6], 4.1 nM | – | 1.01
E57 [6], 12.3 nM | – | 1.01
E57 [6], 37 nM | – | 0.91
E57 [6], 111.1 nM | – | 1.03
E57 [6], 333.3 nM | – | 0.828
E57 [6], 1000 nM | – | 0.252
E57 [6], 3000 nM | – | 0.00967
E57 [13], 4.1 nM | 0.655 | –
E57 [13], 12.3 nM | 0.696 | –
E57 [13], 37 nM | 0.435 | –
E57 [13], 111.1 nM | 0.715 | –
E57 [13], 333.3 nM | 1.53 | –
E57 [13], 1000 nM | 6.34 | –
E57 [13], 3000 nM | 10.4 | –
FT3469 [7], 4.1 nM | – | 0.76
FT3469 [7], 12.3 nM | – | 0.814
FT3469 [7], 37 nM | – | 0.863
FT3469 [7], 111.1 nM | – | 1.16
FT3469 [7], 333.3 nM | – | 0.863
FT3469 [7], 1000 nM | – | 0.504
FT3469 [7], 3000 nM | – | 0.0403
FT3469 [14], 4.1 nM | 1.28 | –
FT3469 [14], 12.3 nM | 1.28 | –
FT3469 [14], 37 nM | 1.13 | –
FT3469 [14], 111.1 nM | 0.545 | –
FT3469 [14], 333.3 nM | 1.44 | –
FT3469 [14], 1000 nM | 2.26 | –
FT3469 [14], 3000 nM | 11.7 | –

Reference: the supplement of paper PMC13207355
